Measurements reported in patent US20150343016A1, “CHEMICAL ENTITIES AND THERAPEUTIC USES THEREOF” (The Regents of the University of Colorado, a body corporate, priority 2010, published 2015).
“Also recorded” adds a separate entry of the source.

Columns and labels:
[1] = test system: H157 cells; experiment: MTT assay, Bouvardin with ionizing radiation, H157; format: cell-based, human
Procedure: “Combination Index” computation. Combination Indices were calculated using CalcuSyn software (Biosoft), which uses the method of Chou and Talalay. This method first computes drug-induced effect using the Hill Equation: where E is the measured effect; C is the drug concentration; Emax is the full range of drug effect, usually at or near 100%; IC50 is the drug concentration producing the median effect of 50%; and n is the curve shape parameter describing the steepness of the concentration-effect relationship. The Chou and Talalay method then linearizes the Hill Equation by logarithmic transformation as: where fu is the fraction of cells left unaffected after drug exposure, fa is the fraction of cells affected by the exposure, C is the drug concentration used, Cm is the concentration to achieve the median effect, and n is the curve shape parameter. Cm and n are equivalent to IC50 and n, respectively, in the Hill Equation. The values of n (obtained from the slope), nlog(Cm) (obtained from the absolute value of the intercept), and, therefore, Cm are obtained by plotting log(fu−1−1) versus log(C). These numbers are then used to compute the Combination Index (CI) according to the formula: CI=(D)1/(Dx)1+(D)2/(Dx)2 (26). (Dx)1 and (Dx)2 are the doses required to achieve a given effect level for each treatment, i.e. a specified value of Fraction Affected or Fa. (D)1 and (D)2 are the doses of each treatment in a given combination which gives the same Fa.
In FIG. 16 MTT assays were used to determine the effect of Bouvardin in combination with IR. Cells were either treated with drug for 24 hr prior to irradiation (A and C, ‘pre-treatment’) or drug and radiation were applied on the same day (B and D, ‘same day treatment’). (A & B) Fraction of cells killed or otherwise eliminated (Fraction Affected) at different doses of Bouvardin and 0 or 2 Gy of IR. (C & D) Combination Index (CI) data from two experiments with pre-treatment protocol, to illustrate reproducibility. CIs below 1 indicate synergy.
In the absence of radiation, the drug has an IC50 (Fraction Affected, Fa=0.5) in the nM range ([…], ‘0 Gy’). Fraction Affected is determined by the formula, 1−(x/y), where x is the MTT signal for the experimental sample and y is the MTT signal for the un-treated control. For example, if the MTT signal in the experimental is 30% of the MTT signal in the control, fraction affected is 0.7. Radiation increased the Fa in a dose-dependent manner in the absence of drug. The addition of the drug further increased the Fa for each dose of radiation. This happened whether the drug was added 24 hr before irradiation (pre-treatment, FIGS. 16A,C) or concurrently (same day treatment, FIGS. 16B,D).
The efficiency of Bouvardin in increasing the effect of radiation on cancer cells is measured in terms of Combination Index (CI) as determined by CalcuSyn software according to the method of Chou and Talalay. This method is widely used in biomedical literature and it has been applied to combinations of antitumor drugs. CI values are calculated from Fa values for multiple drug and radiation doses such as those shown in FIGS. 16 A and B. CI computation takes into account the shape of the dose-response curve, the maximal effect, the intercept, and the IC50 values for drug at each dose of radiation and IC50 for radiation at each dose of drug. […]
The growth inhibitory effects of Bouvardin with ionizing radiation (IR) were evaluated using a modified tetrazolium salt (MTT) assay. […]

[2] = test system: H157 cells; experiment: Clonogenic assay, Bouvardin with IR, H157; format: cell-based, human
Procedure: To assess the effect of Bouvardin, another measure of cell survival, namely, clonogenic assays, was employed. […] For example, IC50 for IR at 0 and 10 nM of Bouvardin, extrapolated from the graph in FIG. 17A, are approximately 1.5 Gy and 1.0 Gy (dark and light dotted lines respectively).
In FIG. 17 (A) Clonogenic assays were used to confirm the effects of Bouvardin in combination with radiation in H157 cells. Cells were plated in 6 well plates at 1,000 cells per well. 24 hours later, various doses of (1 nM, 5 nM and 10 nM) of Bouvardin were added with media alone as a control. 24 hours after the addition of Bouvardin, the cells were irradiated at 0, 2, 4 and 6 Gy. Colonies were allowed to form for 2 weeks and then counted. The results are shown as a percentage of control (no drug, no IR). Error bar=±1SEM. (B) The effect of Bouvardin (Bvd) and radiation on H157 xenografts in athymic mice. Bouvardin treatment began when tumors had reached approximately 200 mm3. […]
The survival of cells treated with Bouvardin and IR was measured by performing standard clonogenic assays. […] The colonies were then stained with crystal violet (1% in methanol), rinsed 3× with water, and colonies with greater than 50 cells were counted using a dissection microscope. Fraction survival was calculated as a percentage of the control (no drug, no IR).

COc1ccc(C[C@H]2C(=O)N[C@H](C)C(=O)N(C)[C@@H]3C(=O)N(C)[C@@H](Cc4ccc(O)c(c4)Oc4ccc(cc4)[C@H]3O)C(=O)N[C@@H](C)C(=O)N[C@H](C)C(=O)N2C)cc1 (stereo in doubt) [Bouvardin, bouvardin]
interaction with radiation in cell-based assays ([1]; 0.3 μM of drug): synergistically | interaction with radiation in cell-based assays ([1]; 0.6 μM of drug): additively/antagonistically | interaction of Bouvardin with radiation ([1]; H157): synergy over a wide range of doses; also recorded: synergize | IC50 (Fraction Affected, Fa=0.5) ([1]; H157, in the absence of radiation (0 Gy)): nM range | interaction of Bouvardin with radiation ([1]; H157, listed as bouvardin): synergizes with ionizing radiation | effect on radiation-induced reduction of clonogenicity [2]: increased the effect of radiation in reducing the clonogenicity
